The text below walks through data of publication PMC7126309 (Bioorganic & Medicinal Chemistry, 2010).

The test addresses SARS-CoV 3CL^pro (Severe acute respiratory syndrome coronavirus, UniProt P0C6X7). Format: biochemical.

Consider `COc1ccc(-c2cc(=O)c3c(O)cc(O)cc3o2)cc1-c1c(O)cc(O)c2c(=O)cc(-c3ccc(O)cc3)oc12` [Compound 10, bilobetin], for which the Inhibition type entry was “Noncompetitive (80.4 ± 4.0)”.

Take `O=c1cc(-c2ccc(O)c(-c3c(O)cc(O)c4c(=O)cc(-c5ccc(O)cc5)oc34)c2)oc2cc(O)cc(O)c12` [Compound 9, amentoflavone]: the Inhibition type result was “Noncompetitive (13.8 ± 1.5)”.

Turning to `COc1ccc(-c2cc(=O)c3c(O)cc(O)c(-c4cc(-c5cc(=O)c6c(O)cc(OC)cc6o5)ccc4OC)c3o2)cc1` [Compound 12, sciadopitysin], the Inhibition type result was “Noncompetitive (35.6 ± 1.1)”.

On to `COc1cc(O)c2c(=O)cc(-c3ccc(OC)c(-c4c(O)cc(O)c5c(=O)cc(-c6ccc(O)cc6)oc45)c3)oc2c1` [Compound 11, ginkgetin], for which the Inhibition type entry is “Noncompetitive (30.2 ± 2.6)”.
